Measurements: patent EP1090023B1 (GLAXO GROUP LIMITED, priority 1998, dated 1999)

Columns and labels:
Format in all cases: cell-based
adenosine 2a = adenosine 2a (Homo sapiens, UniProt P29274); assay: Agonist activity against adenosine receptor subtypes, CHO cells with cAMP response element/SPAP reporter (basal cAMP); details: ratio to EC50 of NECA; transfected CHO cells; effect on basal cAMP via SPAP
How it was run: (§1)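 Human adenosine receptor-transfected CHO cells carrying a cAMP response element–SPAP reporter; agonism read as SPAP change from basal cAMP for A2a, or from forskolin-enhanced cAMP for A1 and A3. EC50 expressed as ratio to that of NECA, a non-selective agonist.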

adenosine 3 = target: T1, adenosine 3 (Homo sapiens, UniProt P0DMS8); assay: Agonist activity against adenosine receptor subtypes, CHO cells with cAMP response element/SPAP reporter (forskolin-enhanced cAMP); details: ratio to EC50 of NECA; transfected CHO cells; effect on forskolin-enhanced cAMP via SPAP
T1 sequence (P0DMS8 1-318): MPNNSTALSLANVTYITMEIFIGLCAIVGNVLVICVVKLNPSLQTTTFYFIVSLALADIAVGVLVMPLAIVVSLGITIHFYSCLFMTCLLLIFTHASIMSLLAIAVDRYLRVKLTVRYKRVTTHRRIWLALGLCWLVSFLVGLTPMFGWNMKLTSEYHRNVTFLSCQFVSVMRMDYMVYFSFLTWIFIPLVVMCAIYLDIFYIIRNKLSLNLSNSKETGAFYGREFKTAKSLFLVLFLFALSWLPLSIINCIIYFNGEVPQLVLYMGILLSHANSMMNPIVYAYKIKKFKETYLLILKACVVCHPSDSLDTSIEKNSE
How it was run: as §1

adenosine 1 = target: T2, adenosine 1 (Homo sapiens, UniProt P30542); assay: as above; details: ratio to EC50 of NECA; transfected CHO cells; effect on forskolin-enhanced cAMP via SPAP
T2 sequence (P30542 1-326): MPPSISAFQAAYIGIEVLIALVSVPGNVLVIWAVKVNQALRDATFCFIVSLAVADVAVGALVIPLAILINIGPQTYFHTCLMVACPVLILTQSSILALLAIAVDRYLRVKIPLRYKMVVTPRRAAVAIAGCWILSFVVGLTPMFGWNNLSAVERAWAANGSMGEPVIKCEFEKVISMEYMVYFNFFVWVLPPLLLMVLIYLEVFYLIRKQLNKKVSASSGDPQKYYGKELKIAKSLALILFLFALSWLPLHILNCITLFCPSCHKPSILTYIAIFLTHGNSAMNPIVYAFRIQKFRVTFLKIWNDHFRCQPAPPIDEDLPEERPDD
How it was run: as §1

Sequence of adenosine 2a (P29274 whole entry): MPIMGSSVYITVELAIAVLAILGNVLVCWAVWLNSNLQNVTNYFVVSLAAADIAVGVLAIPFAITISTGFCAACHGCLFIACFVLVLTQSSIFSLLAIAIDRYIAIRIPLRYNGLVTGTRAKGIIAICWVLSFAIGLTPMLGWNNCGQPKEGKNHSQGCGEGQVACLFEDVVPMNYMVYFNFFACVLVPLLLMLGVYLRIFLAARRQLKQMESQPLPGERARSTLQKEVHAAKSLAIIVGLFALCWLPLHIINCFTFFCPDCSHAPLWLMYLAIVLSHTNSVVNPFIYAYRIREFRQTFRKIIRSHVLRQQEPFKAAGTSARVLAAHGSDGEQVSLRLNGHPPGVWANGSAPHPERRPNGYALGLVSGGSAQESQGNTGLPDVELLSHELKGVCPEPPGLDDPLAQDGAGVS

| Compound | A2a (EC50 values as a ratio of that of NECA) (adenosine 2a) | A3 (EC50 values as a ratio of that of NECA) (adenosine 3) | A1 (EC50 values as a ratio of that of NECA) (adenosine 1) |
| --- | --- | --- | --- |
| CCC(CC)Nc1nc(N[C@@H]2CCNC2)nc2c1ncn2[C@@H]1O[C@H](c2nnc(C3CC3)o2)[C@@H](O)[C@H]1O.O=CO.O=CO [Example 40, (2S,3S,4R,5R)-2-(5-Cyclopropyl-[1,3,4]oxadiazol-2-yl)-5-[6-(1-ethyl-propylamino)-2-(pyrrolidin-3R-ylamino)-purin-9-yl]-tetrahydro-furan-3,4-diol diformate] | 56.86 | >173 | 5084.2 |
| CCc1nnc([C@H]2O[C@@H](n3cnc4c(NCC(c5ccccc5)c5ccccc5)nc(N[C@H](CO)Cc5ccccc5)nc43)[C@H](O)[C@@H]2O)[nH]1.O=CO [Example 5, (2R,3R,4S,5R)-2-[6-(2,2-Diphenyl-ethylamino)-2-(1S-hydroxymethyl-2-phenyl-ethylamino)-purin-9-yl]-5-(5-ethyl-4H-[1,2,4]triazol-3-yl)-tetrahydro-furan-3,4-diol formate] | 1 | >319 | >=5194 |
| CCC(CC)Nc1nc(NCCC2CCCCC2)nc2c1ncn2C1OC(c2nnc(C3CC3)o2)C(O)C1O.O=CO.O=CO [Example 41, (2R,3R,4S,5S)-2-[2-(2-Cyclohexyl-ethylamino)-6-(1-ethyl-propylamino)-purin-9-yl]-5-(5-cyclopropyl-[1,3,4]oxadiazol-2-yl)-tetrahydro-furan-3,4-diol diformate] | 74.29 | >249 | 1921.5 |
| (2R,3R,4S,5R)-2-[6-(2,2-Diphenyl-ethylamino)-2-(1R-hydroxy-2-phenyl-ethylamino)-purin-9-yl]-5-(1-ethyl-1H-[1,2,4]triazol-3-yl)-tetrahydro-furan-3,4-diol formate [Example 35] | 6.33 | >240 | 5261.1 |
